A short description of data set [1]: Toxicity XTT in CEM-SS cells (cytoprotection assay). The class given is cell-based. The note with it: human, CEM-SS cells, XTT; read-out: CEM-SS TC50. As to the method:
Cell Preparation—CEM-SS cells were passaged in T-75 flasks prior to use in the antiviral assay. On the day preceding the assay, the cells were split 1:2 to assure they were in an exponential growth phase at the time of infection. Total cell and viability quantification was performed using a hemocytometer and Trypan Blue dye exclusion. Cell viability was greater than 95% for the cells to be utilized in the assay. The cells were resuspended at 5×10^4 cells per ml in tissue culture medium and added to the drug containing microtiter plates in a volume of 50 μL.
(§1) Plate Format—Each plate contains cell control wells (cells only), virus control wells (cells plus virus), drug toxicity wells (cells plus drug only), drug colorimetric control wells (drug only) as well as experimental wells (drug plus cells plus virus). Samples were tested in triplicate with eleven half-log dilutions per compound.
(§2) Efficacy and Toxicity XTT—Following incubation at 37° C. in a 5% CO2 incubator, the test plates were stained with the tetrazolium dye XTT (2,3-bis(2-methoxy-4-nitro-5-sulfophenyl)-5-[(phenylamino)carbonyl]-2H-tetrazolium hydroxide). XTT-tetrazolium is metabolized by the mitochondrial enzymes of metabolically active cells to a soluble formazan product, allowing rapid quantitative analysis of the inhibition of HIV induced cell killing by anti-HIV test substances. XTT solution was prepared daily as a stock of 1 mg/mL in RPMI1640. Phenazine methosulfate (PMS) solution was prepared at 0.15 mg/mL in PBS and stored in the dark at −20° C. XTT/PMS stock was prepared immediately before use by adding 40 μL of PMS per ml of XTT solution. Fifty microliters of XTT/PMS was added to each well of the plate and the plate was re-incubated for 4 hours at 37° C. Plates were sealed with adhesive plate sealers and shaken gently or inverted several times to mix the soluble fosmazan product and the plate was read spectrophotometrically at 450/650 nm with a Molecular Devices Vmax plate reader.
(§3) Data Analysis—Raw data was collected from the Softmax Pro 4.6 software and imported into a Excel XLFit4 spreadsheet for analysis by four parameter curve fit calculations. Both antiviral activity and toxicity are calculated.

Data set [2] concerns A17K103N/Y181C. Briefly: Anti-HIV cytoprotection assay, drug resistant A17. The class given is cell-based. The note with it: HIV-1 strain A17K103N/Y181C, CEM-SS cells. As to the method:
(§4) Cells were prepared as described above. Virus Preparation—The wild type NL4-3 and drug resistant A17 viruses were obtained from the NIH AIDS Research and Reference Reagent Program and stock virus pools were produced in CEM-SS cells. Amino acid substitutes of L100I, Y181C and P23L were introduced by site-directed mutagenesis into pN L4-3 and stock virus pools were produced in CEM-SS cells. A pretitered aliquot of virus was removed from the freezer (−80° C.) and allowed to thaw slowly to room temperature in a biological safety cabinet.
as §2, with “Plate Format—Each plate contains cell control wells (cells only), virus control wells (cells plus virus), drug toxicity wells (cells plus drug only), drug colorimetric control wells (drug only) as well as experimental wells (drug plus cells plus virus). Samples were tested in triplicate with eleven half-log dilutions per compound. Efficacy” for “Efficacy”, “XTT-tetrazolium was” for “XTT-tetrazolium is”, “C. XTTIPMS” for “C. XTT/PMS”, “soluble formazan” for “soluble fosmazan”
as §3

Data set [3] relates to NL4-3P236L. Briefly: Anti-HIV cytoprotection assay, drug resistant NL4-3 P236L. The class given is cell-based. The settings on record: HIV-1 strain NL4-3P236L; for EC50: CEM-SS cells. The procedure:
as §4, with “cabinet. Virus was re-suspended and diluted into tissue culture medium such that the amount of virus added to each well in a volume of 50 μL was the amount determined to yield 85 to 95% cell killing at 6 days post-infection.” for “cabinet.”
as §2, with “Plate Format—Each plate contains cell control wells (cells only), virus control wells (cells plus virus), drug toxicity wells (cells plus drug only), drug colorimetric control wells (drug only) as well as experimental wells (drug plus cells plus virus). Samples were tested in triplicate with eleven half-log dilutions per compound. Efficacy” for “Efficacy”, “XTT-tetrazolium was” for “XTT-tetrazolium is”, “C. XTTIPMS” for “C. XTT/PMS”, “soluble formazan” for “soluble fosmazan”
as §3

Data set [4] deals with NL4-3L100I. Briefly: Anti-HIV cytoprotection assay, drug resistant NL4-3 L100I. The class given is cell-based. The note with it: HIV-1 strain NL4-3L100I, CEM-SS cells. The procedure: as §4, with “cabinet. Virus was re-suspended and diluted into tissue culture medium such that the amount of virus added to each well in a volume of 50 μL was the amount determined to yield 85 to 95% cell killing at 6 days post-infection.” for “cabinet.”
as §2, with “Plate Format—Each plate contains cell control wells (cells only), virus control wells (cells plus virus), drug toxicity wells (cells plus drug only), drug colorimetric control wells (drug only) as well as experimental wells (drug plus cells plus virus). Samples were tested in triplicate with eleven half-log dilutions per compound. Efficacy” for “Efficacy”, “XTT-tetrazolium was” for “XTT-tetrazolium is”, “C. XTTIPMS” for “C. XTT/PMS”, “soluble formazan” for “soluble fosmazan”
as §3

Data set [5] in a line: Toxicity XTT in CEM-SS cells (drug resistant strain assay). The class given is cell-based. The settings on record: human, CEM-SS cells, read-out: TC50 (the source's name). As to the method:
as §4, with “cabinet. Virus was re-suspended and diluted into tissue culture medium such that the amount of virus added to each well in a volume of 50 μL was the amount determined to yield 85 to 95% cell killing at 6 days post-infection.” for “cabinet.”
as §2, with “Plate Format—Each plate contains cell control wells (cells only), virus control wells (cells plus virus), drug toxicity wells (cells plus drug only), drug colorimetric control wells (drug only) as well as experimental wells (drug plus cells plus virus). Samples were tested in triplicate with eleven half-log dilutions per compound. Efficacy” for “Efficacy”, “XTT-tetrazolium was” for “XTT-tetrazolium is”, “C. XTTIPMS” for “C. XTT/PMS”, “soluble formazan” for “soluble fosmazan”
as §3
(Formazan colour is commonly taken as a measure of viable cells.)

In data set [6] the test system is NL4-3Y181C. Briefly: Anti-HIV cytoprotection assay, drug resistant NL4-3 Y181C. The class given is cell-based. The note with it: HIV-1 strain NL4-3Y181C; for EC50: CEM-SS cells. As to the method:
as §4, with “cabinet. Virus was re-suspended and diluted into tissue culture medium such that the amount of virus added to each well in a volume of 50 μL was the amount determined to yield 85 to 95% cell killing at 6 days post-infection.” for “cabinet.”
as §2, with “Plate Format—Each plate contains cell control wells (cells only), virus control wells (cells plus virus), drug toxicity wells (cells plus drug only), drug colorimetric control wells (drug only) as well as experimental wells (drug plus cells plus virus). Samples were tested in triplicate with eleven half-log dilutions per compound. Efficacy” for “Efficacy”, “XTT-tetrazolium was” for “XTT-tetrazolium is”, “C. XTTIPMS” for “C. XTT/PMS”, “soluble formazan” for “soluble fosmazan”
as §3

Data set [7] has as its system HIV-1RF. Briefly: Anti-HIV-1 cytoprotection assay in CEM-SS cells. The class given is cell-based. The procedure: Cell Preparation—CEM-SS cells were passaged in T-75 flasks prior to use in the antiviral assay. On the day preceding the assay, the cells were split 1:2 to assure they were in an exponential growth phase at the time of infection. Total cell and viability quantification was performed using a hemocytometer and Trypan Blue dye exclusion. […] The cells were resuspended at 5×10^4 cells per ml in tissue culture medium and added to the drug containing microtiter plates in a volume of 50 μL.
Virus Preparation—The virus used for the assay was the lymphocyte-tropic virus strain HIV-IRF. The virus was obtained from the NIH AIDS Research and Reference Reagent Program and stock virus pools were produced in CEM-SS cells. A pretitred aliquot of virus was removed from the freezer (−80° C.) and allowed to thaw slowly to room temperature in a biological safety cabinet.
as §1, §2
Anti-HIV-1 Cytopathic Effects Inhibition Assay Evaluations: Eight compounds were evaluated against the RF strain of HIV-1 in CEM-SS cells using a 12 concentration dose response curve.
as §3

The subject of data set [8] is CEM-SS cells. Briefly: Toxicity XTT in CEM-SS cells (drug resistant strain assay). The settings on record: read-out: TC50 (the source's name). The class given is cell-based. As to the method: as §4, with “cabinet. Virus was re-suspended and diluted into tissue culture medium such that the amount of virus added to each well in a volume of 50 μL was the amount determined to yield 85 to 95% cell killing at 6 days post-infection.” for “cabinet.”
as §2, with “Plate Format—Each plate contains cell control wells (cells only), virus control wells (cells plus virus), drug toxicity wells (cells plus drug only), drug colorimetric control wells (drug only) as well as experimental wells (drug plus cells plus virus). Samples were tested in triplicate with eleven half-log dilutions per compound. Efficacy” for “Efficacy”, “XTT-tetrazolium was” for “XTT-tetrazolium is”, “C. XTTIPMS” for “C. XTT/PMS”, “soluble formazan” for “soluble fosmazan”
as §3

The test system of data set [9] is NL4-3. Briefly: Anti-HIV cytoprotection assay, wild type NL4-3. The class given is cell-based, HIV-1. The note with it: for EC50: HIV-1 strain NL4-3, CEM-SS cells, read-out: EC50. The procedure:
as §4
as §2, with “Plate Format—Each plate contains cell control wells (cells only), virus control wells (cells plus virus), drug toxicity wells (cells plus drug only), drug colorimetric control wells (drug only) as well as experimental wells (drug plus cells plus virus). Samples were tested in triplicate with eleven half-log dilutions per compound. Efficacy” for “Efficacy”, “XTT-tetrazolium was” for “XTT-tetrazolium is”, “C. XTTIPMS” for “C. XTT/PMS”, “soluble formazan” for “soluble fosmazan”
as §3

Setting [10] is: Human immunodeficiency virus 1, CEM-SS.
[11] abbreviates: run with HIV-1 strain A17K103N/Y181C.
Where [12] appears, read: run with HIV-1 strain NL4-3L100I.
[13] abbreviates: run with HIV-1 strain NL4-3P236L.
The mark [14] stands for this setting: run with HIV-1 strain NL4-3Y181C.

Values joined by “and” are separate entries in the source; they are usually repeats but may differ in a detail not shown here. Equal entries are not always repeated. Where two headings read alike, the source gives them in different places.

With `Cc1cn([C@H]2C[C@H](N=[N+]=[N-])[C@@H](CO)O2)c(=O)[nH]c1=O` [AZT, reference compound], the CC50 was over 1000 nM in data set [1] and over 500 nM in data set [5] (setting [11]). Further, the EC50 in data set [2] (setting [10]) came to 3 nM; in data set [4], 6 nM; in data set [4] (setting [10]) it was 3 nM; in data set [6] it was 1 nM; in data set [6] (setting [10]), 2 nM; in [7] (CEM-SS cells, XTT, read-out: CEM-SS/HIV-1RF EC50), 10 nM. Moreover, the EC50 in data set [7] (Human immunodeficiency virus 1, CEM-SS, CEM-SS cells, XTT, read-out: CEM-SS/HIV-1RF EC50) amounted to 6 nM; in data set [7] (Human immunodeficiency virus 1, CEM-SS, RF strain of HIV-1 in CEM-SS cells, control compound, read-out: EC50), 6 nM. The TI in data set [3] is >71.4 and >50.0.
Take `CC(C)Nc1cccnc1N1CCN(C(=O)c2cc3cc(NS(C)(=O)=O)ccc3[nH]2)CC1` [Delavirdine, N-[2-({4-[3-(propan-2-ylamino)pyridin-2-yl]piperazin-1-yl}carbonyl)-1H-indol-5-yl]methanesulfonamide, reference compound]: the EC50 is over 1000 nM in [2]; over 500 nM in data set [2] (setting [10]); 500 nM in data set [3]; over 500 nM in data set [3] (setting [10]); 10 nM in data set [9]; 5 nM in [9] (Human immunodeficiency virus 1, NL43, CEM-SS). In addition, the EC50 was 580 nM in data set [6] and over 500 nM in data set [6] (setting [10]). Also, the TI in data set [3] is given as over 2.0; in [9] (HIV-1 strain NL4-3), over 100.0; in data set [6], over 1.7. Also, the CC50 was over 1000 nM in [8] (setting [11]); over 1000 nM in [8] (run with HIV-1 strain NL4-3); over 1000 nM in data set [8] (setting [12]); over 1000 nM in data set [8] (setting [13]); over 1000 nM in data set [8] (setting [14]); over 500 nM in data set [5] (setting [11]). Moreover, the CC50 in data set [5] (run with HIV-1 strain NL4-3), in data set [5] (setting [12]), in [5] (setting [13]) and in [5] (setting [14]) was over 500 nM each time.
For `Cc1ccnc2c1NC(=O)c1cccnc1N2C1CC1` [Nevirapine, reference compound], the EC50 in [2] (setting [10]) is over 10000 nM; in data set [3] it was 280 nM; in data set [3] (setting [10]), 300 nM; in data set [4] (setting [10]), over 10000 nM; in data set [6] it was 8590 nM; in data set [6] (setting [10]) it was over 10000 nM. Also, the TI in [3] is >33.3 and >35.7; in data set [6] it was over 1.2. The CC50 in [5] (setting [11]), in [5] (run with HIV-1 strain NL4-3), in data set [5] (setting [12]), in data set [5] (setting [13]) and in data set [5] (setting [14]) was over 10000 nM throughout.

(Values after patent US9421204B2, “Oligomer modified diaromatic substituted compounds” (priority 2010, dated 2016).)
